# Several values for one entry are separate records, joined by “and”; a condition that tells them apart may be missing. Equal entries are not always repeated. Structures can show the parent of a compound that is named as a salt. Where two headings read alike, the source gives them in different places.
# Experiments:
# DNMT1 = DNMT1 (Homo sapiens, UniProt P26358); experiment: DNMT1 biochemical activity, breaklight assay and/or SPA assay
# [1] = system: erythroid progenitor cells (EPCs); experiment: Fetal hemoglobin (HbF) ELISA in day 7 erythroid progenitor cells; assay type: cell-based, human; settings: Homo sapiens, Erythroid progenitor cell, HbF ELISA, day 7 EPCs, 5 days; read-out: EPC ELISA (pEC50 category) (converted);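 note: for fetal hemoglobin induction normalized to vehicle-treated cells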
# In short: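 Day 7 EPCs from human bone marrow CD34+ cells were plated at 1,000 cells/well in media with 3 U/mL rhEPO. They were exposed to a 22-point dilution ([…]) for 5 days at 37 °C. Lysate HbF was measured by sandwich ELISA (OD450) and normalized to DMSO control wells.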
# [2] = binned activity in either the breaklight or the SPA assay, read-out: DNMT1 BioChemical (pIC50 category) (converted)
# [3] = binned activity in either the breaklight or the SPA assay
# [4] = breaklight assay and/or SPA assay, repeated experimental runs, read-out: average pIC50 against DNMT1 (converted)
# Chain of DNMT1 (P26358 whole entry, looked up): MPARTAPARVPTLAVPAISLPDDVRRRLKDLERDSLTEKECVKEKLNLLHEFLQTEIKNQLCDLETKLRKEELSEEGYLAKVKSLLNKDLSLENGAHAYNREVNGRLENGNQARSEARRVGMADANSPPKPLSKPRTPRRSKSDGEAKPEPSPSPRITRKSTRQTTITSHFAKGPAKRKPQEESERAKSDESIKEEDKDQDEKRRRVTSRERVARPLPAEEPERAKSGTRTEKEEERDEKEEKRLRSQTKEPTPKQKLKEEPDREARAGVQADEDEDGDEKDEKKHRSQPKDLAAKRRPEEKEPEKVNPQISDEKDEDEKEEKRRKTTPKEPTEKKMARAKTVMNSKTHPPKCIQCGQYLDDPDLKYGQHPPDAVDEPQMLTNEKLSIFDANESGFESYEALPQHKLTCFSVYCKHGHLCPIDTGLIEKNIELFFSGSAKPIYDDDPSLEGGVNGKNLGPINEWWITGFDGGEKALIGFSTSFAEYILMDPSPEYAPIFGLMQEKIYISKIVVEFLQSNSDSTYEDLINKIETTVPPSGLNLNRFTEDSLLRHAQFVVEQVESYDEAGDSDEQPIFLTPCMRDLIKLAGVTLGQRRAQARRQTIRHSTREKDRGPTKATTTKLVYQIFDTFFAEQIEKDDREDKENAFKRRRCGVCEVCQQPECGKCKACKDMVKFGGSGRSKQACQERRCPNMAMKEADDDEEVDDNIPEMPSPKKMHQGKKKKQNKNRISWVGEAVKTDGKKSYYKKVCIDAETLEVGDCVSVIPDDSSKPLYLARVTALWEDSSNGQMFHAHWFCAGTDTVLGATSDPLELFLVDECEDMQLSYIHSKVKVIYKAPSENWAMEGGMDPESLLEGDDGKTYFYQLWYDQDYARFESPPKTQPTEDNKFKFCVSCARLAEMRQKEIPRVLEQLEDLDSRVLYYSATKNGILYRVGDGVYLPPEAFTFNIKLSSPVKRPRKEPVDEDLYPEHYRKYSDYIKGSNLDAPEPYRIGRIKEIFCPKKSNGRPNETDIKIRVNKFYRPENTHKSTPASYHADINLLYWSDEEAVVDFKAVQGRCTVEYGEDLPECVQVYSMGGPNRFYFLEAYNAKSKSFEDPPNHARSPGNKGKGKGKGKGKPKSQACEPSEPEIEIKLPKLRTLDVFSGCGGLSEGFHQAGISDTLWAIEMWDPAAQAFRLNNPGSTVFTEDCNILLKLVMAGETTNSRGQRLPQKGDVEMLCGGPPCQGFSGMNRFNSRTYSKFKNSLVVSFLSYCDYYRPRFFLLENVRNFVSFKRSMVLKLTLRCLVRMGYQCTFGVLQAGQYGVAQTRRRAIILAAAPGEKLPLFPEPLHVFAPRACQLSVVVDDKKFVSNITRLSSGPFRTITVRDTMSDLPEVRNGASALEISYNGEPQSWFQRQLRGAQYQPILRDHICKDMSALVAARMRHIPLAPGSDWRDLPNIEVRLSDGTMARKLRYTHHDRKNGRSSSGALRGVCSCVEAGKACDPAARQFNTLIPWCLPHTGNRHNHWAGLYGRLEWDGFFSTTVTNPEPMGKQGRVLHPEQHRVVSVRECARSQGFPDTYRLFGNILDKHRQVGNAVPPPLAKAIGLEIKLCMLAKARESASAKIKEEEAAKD
Compound,IC50 (DNMT1; [2]) [nM],EC50 [1] [nM],"IC50 (DNMT1; DNMT1 BioChemical (pIC50 category), binned activity in either the breaklight or the SPA assay) [nM]",DNMT1 BioChemical (pIC50 category) (DNMT1; [3]),IC50 (DNMT1; [4]),"average pIC50 against DNMT1 (DNMT1; breaklight assay and/or SPA assay, repeated experimental runs)"
"CCc1c(C#N)c(SC(C(N)=O)c2ccccc2)nc(N2CCC(OC3COC3)CC2)c1C#N (centres unmarked) [Example 231, 2-((3,5-Dicyano-4-ethyl-6-(4-(oxetan-3-yloxy)piperidin-1-yl)pyridin-2-yl)thio)-2-phenylacetamide]",316 to 1000,316 to 1000,–,–,–,–
"CCc1c(C#N)c(SC(C(N)=O)c2ccccc2)nc(N(C)C2CC3CCC(C2)N3)c1C#N (centres unmarked) [Example 62, 2-((6-(8-azabicyclo[3.2.1]octan-3-yl(methyl)amino)-3,5-dicyano-4-ethylpyridin-2-yl)thio)-2-phenylacetamide]",–,316 to 1000,316 to 1000,–,–,–
"CCc1c(C#N)c(SC(C(N)=O)c2cccc(F)n2)nc(N2CCCN(C)CC2)c1C#N (centres unmarked) [Example 206, 2-((3,5-Dicyano-4-ethyl-6-(4-methyl-1,4-diazepan-1-yl)pyridin-2-yl)thio)-2-(6-fluoropyridin-2-yl)acetamide]",316 to 1000,> 31600,–,–,–,–
"CCc1c(C#N)c(SC(C(N)=O)c2ccc(F)cc2)nc(N2CC[C@H](N(C)C)C2)c1C#N (stereo partly drawn) [Example 544, 2-((3,5-dicyano-6-((S)-3-(dimethylamino)pyrrolidin-1-yl)-4-ethylpyridin-2-yl)thio)-2-(4-fluorophenyl)acetamide]",–,1000 to 31600,–,D (Category D: ≥6.5),–,–
"CCc1c(C#N)c(SCc2ccc3[nH]ccc3c2)nc(N2CCC(N3CCCC3)CC2)c1C#N [Example 344, 2-(((1H-Indol-5-yl)methyl)thio)-4-ethyl-6-(4-(pyrrolidin-1-yl)piperidin-1-yl)pyridine-3,5-dicarbonitrile]",316 to 1000,1000 to 31600,–,–,–,–
"CCc1c(C#N)c(S[C@@H](C(N)=O)c2ccccc2)nc(N2CC[C@H](N)[C@@H](F)C2)c1C#N [Example 519, (R)-2-((6-((3S,4S)-4-amino-3-fluoropiperidin-1-yl)-3,5-dicyano-4-ethylpyridin-2-yl)thio)-2-phenylacetamide, Trifluoroacetic acid salt]",–,< 316,–,D (Category D: ≥6.5),–,–
"CCc1c(C#N)c(SC(C(N)=O)c2ccc(OC)cn2)nc(N(C)C)c1C#N (centres unmarked) [Example 237, 2-((3,5-Dicyano-6-(dimethylamino)-4-ethylpyridin-2-yl)thio)-2-(5-methoxypyridin-2-yl)acetamide]",316 to 1000,1000 to 31600,–,–,316 to 1000 nM and 398 nM,–
CCOc1c(C#N)c(SC(C(N)=O)c2ccccc2)nc(N2CCCN(CCO)CC2)c1C#N (centres unmarked) [Example 193],–,316 to 1000,–,D (Category D: ≥6.5),–,–
"CCc1c(C#N)c(S[C@@H](C(N)=O)c2ccccc2)nc(N2CCOCC2)c1C#N [Example 65, (R)-2-[(3,5-Dicyano-4-ethyl-6-morpholino-2-pyridyl)sulfanyl]-2-phenyl-acetamide]",316 to 1000,1000 to 31600,–,–,–,–
"CCc1c(C#N)c(SC(C(N)=O)c2ccccc2)nc(N2CC3NCCOC3C2)c1C#N (centres unmarked) [Example 204, 2-((3,5-Dicyano-4-ethyl-6-(hexahydropyrrolo[3,4-b][1,4]oxazin-6(2H)-yl)pyridin-2-yl)thio)-2-phenylacetamide]",316 to 1000,1000 to 31600,–,–,–,–
"CCc1c(C#N)c(SCc2ccc(NS(C)(=O)=O)cc2)nc(N2CCCN(C)CC2)c1C#N [Example 299, N-(4-(((3,5-Dicyano-4-ethyl-6-(4-methyl-1,4-diazepan-1-yl)pyridin-2-yl)thio)methyl)phenyl) methanesulfonamide]",–,316 to 1000,–,D (Category D: ≥6.5),–,–
"CCc1c(C#N)c(SCc2ccc(C(N)=O)cc2)nc(N2CCCN(C)CC2)c1C#N [Example 70, 4-(((3,5-Dicyano-4-ethyl-6-(4-methyl-1,4-diazepan-1-yl)pyridin-2-yl)thio)methyl)benzamide]",316 to 1000,316 to 1000,–,–,316 to 1000 nM,–
"CCc1c(C#N)c(SC(C(N)=O)c2ccccc2)nc(N(C)CC(=O)NCCn2cnnc2)c1C#N (centres unmarked) [Example 686, N-(2-(4H-1,2,4-triazol-4-yl)ethyl)-2-((6-((2-amino-2-oxo-1-phenylethyl)thio)-3,5-dicyano-4-ethylpyridin-2-yl)(methyl)amino)acetamide]",–,1000 to 31600,–,D (Category D: ≥6.5),–,–
"CCc1c(C#N)c(SCc2ccc(N3CCN(C)CC3)cc2)nc(N2CCCN(C)CC2)c1C#N [Example 384, 4-Ethyl-2-(4-methyl-1,4-diazepan-1-yl)-6-((4-(4-methylpiperazin-1-yl)benzyl)thio)pyridine-3,5-dicarbonitrile]",316 to 1000,> 31600,–,–,–,–
"CCc1c(C#N)c(SCc2ccc(N(C)S(C)(=O)=O)cc2)nc(N2CCC(NCCO)CC2)c1C#N [Example 692, N-(4-(((3,5-dicyano-4-ethyl-6-(4-((2-hydroxyethyl)amino)piperidin-1-yl)pyridin-2-yl)thio)methyl)phenyl)-N-methylmethanesulfonamide]",–,< 316,–,D (Category D: ≥6.5),–,–
"CCc1c(C#N)c(SC(C(N)=O)c2ccccc2)nc(N2CCC(NCC(C)(C)C)C(F)C2)c1C#N (centres unmarked) [Example 409, 2-((3,5-dicyano-4-ethyl-6-(3-fluoro-4-A(neopentylamino)piperidin-1-yl)pyridin-2-yl)thio)-2-phenylacetamide]",–,< 316,–,D (Category D: ≥6.5),158 nM,> 6.5
"CCc1c(C#N)c(S[C@@H](C(N)=O)c2ccccc2)nc(N2CC[C@@H](NC(=O)OC(C)(C)C)[C@@H](O)C2)c1C#N [Example 533, tert-butyl ((3S,4R)-1-(6-(((R)-2-amino-2-oxo-1-phenylethyl)thio)-3,5-dicyano-4-ethylpyridin-2-yl)-3-hydroxypiperidin-4-yl)carbamate]",–,< 316,–,D (Category D: ≥6.5),–,–
"CCc1c(C#N)c(SC(C(N)=O)c2ccccc2)nc(N2CCC(N3C(=O)COC3=O)CC2)c1C#N (centres unmarked) [Example 260, 2-((3,5-Dicyano-6-(4-(2,4-dioxooxazolidin-3-yl)piperidin-1-yl)-4-ethylpyridin-2-yl)thio)-2-phenylacetamide]",316 to 1000,1000 to 31600,–,–,–,–
"CCc1c(C#N)c(SCc2ccc(C(=O)NCCO)cc2)nc(N(C)C)c1C#N [Example 292, 4-(((3,5-Dicyano-6-(dimethylamino)-4-ethylpyridin-2-yl)thio)methyl)-N-(2-hydroxyethyl)benzamide]",316 to 1000,1000 to 31600,–,–,–,–
"CC1CN(c2nc(SC(C(N)=O)c3ccccc3)c(C#N)c(C3CC3)c2C#N)CCN1 (centres unmarked) [Example 19, 2-((3,5-Dicyano-4-cyclopropyl-6-(3-methylpiperazin-1-yl)pyridin-2-yl)thio)-2-phenylacetamide]",316 to 1000,< 316,–,–,–,–
"CCc1c(C#N)c(SCc2ccc(N)c(F)c2)nc(N2CCCN(C)CC2)c1C#N [Example 360, 2-((4-Amino-3-fluorobenzyl)thio)-4-ethyl-6-(4-methyl-1,4-diazepan-1-yl)pyridine-3,5-dicarbonitrile]",316 to 1000,1000 to 31600,–,–,–,–
"CCc1c(C#N)c(SC(C(N)=O)c2ccccc2)nc(N2CCN(Cc3cnsc3)CC2)c1C#N (centres unmarked) [Example 197, 2-((3,5-Dicyano-4-ethyl-6-(4-(isothiazol-4-ylmethyl)piperazin-1-yl)pyridin-2-yl)thio)-2-phenylacetamide]",316 to 1000,316 to 1000,–,–,–,–
"CCc1c(C#N)c(SC(C(N)=O)c2ccccc2)nc(N2CCOC(CNC)C2)c1C#N (centres unmarked) [Example 563, 2-((3,5-dicyano-4-ethyl-6-(2-((methylamino)methyl)morpholino)pyridin-2-yl)thio)-2-phenylacetamide]",–,< 316,–,D (Category D: ≥6.5),–,–
"CCc1c(C#N)c(SC(C(N)=O)c2ccc(C(N)=O)cc2)nc(N(C)C)c1C#N (centres unmarked) [Example 375, 4-(2-Amino-1-((3,5-dicyano-6-(dimethylamino)-4-ethylpyridin-2-yl)thio)-2-oxoethyl)benzamide]",–,1000 to 31600,–,D (Category D: ≥6.5),–,–
"CCc1c(C#N)c(SC(C(N)=O)c2ccccc2)nc(N2CCN(Cc3ncco3)CC2)c1C#N (centres unmarked) [Example 176, 2-((3,5-Dicyano-4-ethyl-6-(4-(oxazol-2-ylmethyl)piperazin-1-yl)pyridin-2-yl)thio)-2-phenylacetamide]",316 to 1000,316 to 1000,–,–,–,–
"CCc1c(C#N)c(SC(C(N)=O)c2ccccc2)nc(N(C)CC(=O)N(C)CCO)c1C#N (centres unmarked) [Example 606, 2-((6-((2-amino-2-oxo-1-phenylethyl)thio)-3,5-dicyano-4-ethylpyridin-2-yl)(methyl)amino)-N-(2-hydroxyethyl)-N-methylacetamide]",–,< 316,–,D (Category D: ≥6.5),–,–
"CCc1c(C#N)c(SC(C(N)=O)c2ccccc2)nc(N2CCC(O)C2)c1C#N (centres unmarked) [Example 370, 2-((3,5-Dicyano-4-ethyl-6-(3-hydroxypyrrolidin-1-yl)pyridin-2-yl)thio)-2-phenylacetamide]",316 to 1000,1000 to 31600,–,–,–,–
"CCc1c(C#N)c(SC(C(N)=O)c2ccccc2)nc(N2CCC(NC3CC3)CC2)c1C#N (centres unmarked) [Example 552, 2-((3,5-dicyano-6-(4-(cyclopropylamino)piperidin-1-yl)-4-ethylpyridin-2-yl)thio)-2-phenylacetamide]",–,< 316,–,D (Category D: ≥6.5),–,–
CCc1c(C#N)c(SC(C(N)=O)c2ccc(F)cc2F)nc(N2CC[C@H](O)C2)c1C#N (some centres unmarked) [Example 430],–,316 to 1000,–,D (Category D: ≥6.5),–,–
